Data from paper PMC8424217 (The Journal of Biological Chemistry, 2021).
Peptide text beside a SMILES is read from it. * marks the point of attachment. Palmitoyl = CCCCCCCCCCCCCCCC(=O)*

Experiments:
Circular dichroism = assay type: physicochemical; settings: peptide 0.2 mg mL^−1, 20 °C
Experimental: Circular dichroism (CD) analyses were performed in a JASCO J-815 (JAPAN Spectroscopy & Chromatography Technology) spectropolarimeter coupled to a temperature controller Peltier. Samples were dissolved at 0.2 mg mL^−1 in either water, 0.5 mg mL^−1 DPC (dodecylphophocholine), 0.1 mg mL^−1 SDS (sodium dodecyl sulfate), or TFE (2,2,2-trifluoroethanol) aqueous solutions at concentrations of 20%, 50%, and 80%. The CD spectra were recorded in the measured range of 200–250 nm using a scan speed of 50 nm min^−1, and the baseline was corrected by subtraction of the solvent spectrum. The temperature was set to 20 °C.

HEK 293 cells = test: EGFR transactivation (EGFR-GFP internalization, confocal microscopy), untransfected/mock HEK 293 cells; assay type: cell-based; settings: HEK 293, 30 min
Experimental: Figure 7 UT-pepducins-mediated transactivation of EGFR following hUT activation. […] EGFR internalization, following hUT stimulation with various ligands for 30 min, was visualized using confocal microscopy. The images shown are from representative experiments repeated at least three times.
HEK 293 and HEK 293-hUT cells, transiently transfected with cDNA encoding fluorescently labeled EGFR (EGFR-GFP) (2 μg), were plated onto 35-mm glass-bottomed culture dishes (MatTek Corp). Following stimulation, cells were washed once with PBS and fixed in 4% paraformaldehyde for 15 min. To study the involvement of Gq in EGFR internalization, cells were treated with YM254890 (100 nM) for 1h prior peptide treatments. […] EGFR-GFP internalization was visualized using a combination of excitation (488 nm) and emission filters (499 and 520 nm). […]
endogenously expressed hUT activation in untransfected HEK 293 cells.HEK 293 expressing low level of wild type hUT and transfected […]
using confocal microscopy. The image shown are from representative experiments repeated at least three times. Arrows indicate cellular aggregates representing EGFR internalization.
(1 picture or pasted object on this page, not shown here)

Compound	CD conformation in SDS (Circular dichroism; 0.1 mg mL^−1 SDS)	CD conformation in DPC (Circular dichroism; 0.5 mg mL^−1 DPC)	CD conformation in TFE (Circular dichroism; TFE 80%)	CD conformation in water (Circular dichroism; water)	EGFR internalization in untransfected/mock-transfected cells (HEK 293 cells)
CCCCCCCCCCCCCCCC(=O)N[C@@H](Cc1c[nH]c2ccccc12)C(=O)N[C@@H](CC(C)C)C(=O)N[C@@H](CO)C(=O)N[C@@H](CCC(N)=O)C(=O)N[C@@H](CCCNC(=N)N)C(=O)N[C@@H](C)C(=O)N[C@@H](CO)C(=O)N[C@@H](Cc1ccccc1)C(=O)N[C@@H](CCCCN)C(=O)N[C@@H](CCCNC(=N)N)C(=O)N[C@@H](C)C(=O)N[C@@H](CCCNC(=N)N)C(=O)N[C@@H](CCCNC(=N)N)C(N)=O [[Trp^1, Leu^2]hUT-Pep3] (Palmitoyl-WLSQRASFKRARR-NH2)	β-sheet conformation (lower peak at 216 nm)	less structured α-helix conformation	fold as an α-helix (dark green, TFE 80%, lower peaks at 205 and 216 nm)	nonstructured shape (random coil)	–
CC(C)[C@H](NC(=O)[C@@H]1CSSC[C@H](NC(=O)[C@H](CC(=O)O)NC(=O)[C@@H]2CCCN2C(=O)[C@@H](NC(=O)[C@@H](N)CCC(=O)O)[C@@H](C)O)C(=O)N[C@@H](Cc2ccccc2)C(=O)N[C@@H](Cc2c[nH]c3ccccc23)C(=O)N[C@@H](CCCCN)C(=O)N[C@@H](Cc2ccc(O)cc2)C(=O)N1)C(=O)O [hUII, urotensin II, reference compound]	–	–	–	–	limited EGFR internalization can be observed in untransfected HEK 293 cells
